Data: US20230047816A1 (priority 2018, published 2023)
Structures can show the parent of a compound that is named as a salt. Where two headings read alike, the source gives them in different places. Each block holds one compound with its values, some of them ahead of it.

What was measured:
neurons = assay: Neuroprotection, protection factor, NMDA treatment; type: cell-based; conditions: Treatment NMDA 100 μM 10 minutes, then inhibitor 24 hours
Experimental: For NMDAR activation, neurons at 8 days in vitro were incubated 100 μM NMDA (plus 10 μM glycine) for 10 minutes. Neurons were then washed and further incubated in culture medium with the PFKFB3 inhibitors for 24 hours. For b-amyloid treatment, neurons at 8 days in vitro were incubated with […] b-amyloid plus the PFKFB3 inhibitors for 24 hours. The Protection factor was estimated as [AMC(beta-A)−AMC(DMSO)]/[AMC(beta-A)−AMC(Test article)] or [AMC(beta-A)−AMC(DMSO)]/[AMC(NMDA)−AMC(Test article)], where:
AMC(DMSO)—% dead neuron in case of DMSO treatment
AMC(NMDA)—% dead neuron in case of NMDA treatment
AMC(Test article)—% dead neuron in case of PFKFB3 inhibitors treatment.

[1] = all treated patients; cited from earlier work
PFKFB3 = PFKFB3 (Homo sapiens, UniProt Q16875); conditions: reported in the literature; cited from earlier work
Chain of PFKFB3 (Q16875 whole entry, species assumed): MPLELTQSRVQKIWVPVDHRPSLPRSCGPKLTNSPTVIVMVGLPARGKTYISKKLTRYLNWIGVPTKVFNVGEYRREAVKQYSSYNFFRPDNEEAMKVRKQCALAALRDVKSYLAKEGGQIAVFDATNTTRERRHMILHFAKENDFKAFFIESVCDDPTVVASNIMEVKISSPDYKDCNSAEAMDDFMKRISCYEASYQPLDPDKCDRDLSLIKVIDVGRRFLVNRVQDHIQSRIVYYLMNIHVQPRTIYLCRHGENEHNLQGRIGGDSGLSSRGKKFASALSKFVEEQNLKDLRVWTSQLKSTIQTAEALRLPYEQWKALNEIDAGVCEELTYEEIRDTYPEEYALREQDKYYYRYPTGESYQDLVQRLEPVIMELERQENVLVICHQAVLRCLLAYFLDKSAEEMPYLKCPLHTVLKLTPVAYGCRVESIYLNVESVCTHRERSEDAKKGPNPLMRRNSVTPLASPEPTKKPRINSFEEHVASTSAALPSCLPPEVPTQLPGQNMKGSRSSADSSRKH

[2] = reported in the literature; cited from earlier work
established tumors = conditions: reported in the literature; cited from earlier work
RENCA renal tumor = assay: Orthotopic RENCA syngeneic renal tumor model; type: in vivo, female BALB/c mice; conditions: 30 mg/kg twice daily, i.p.
Experimental: (§1) The aim of this study was to evaluate the antitumor efficacy of GO-672 (4-({4-carboxy-2′,4′-dichloro-[1,1′-biphenyl]-3-yl}carbamoyl)-6-hydroxybenzene-1,3-dicarboxylic acid) (30 mg/kg twice daily, i.p.) in an orthotopic RENCA syngeneic renal tumor model in female BALB/c mice in vivo.

HUVECs [3] = assay: HUVEC cell viability (Cyquant NF cell proliferation assay); type: cell-based, human; conditions: normoxia (20% O2) and hypoxia (1% O2)
Experimental: ThermoFisher Cyquant NF cell proliferation assay kit Normoxia conditions: 37° C., 5% CO2, 20% O2 incubator Hypoxia conditions: 37° C., 5% CO2, 1% O2 incubator FIG. 2. Effect of GO-672 on vessel sprouting in vitro. Raw images from the experiment with 3D spheroids of HUVEC after treatment with GO-672 (B) and Sunitinib (A). VEGF-A was used as a stimulation factor. Dose-response plot of GO-672 (C) and Sunitinib (D).

HUVEC spheroids = assay: VEGF-A induced sprouting, spheroid-based cellular angiogenesis assay; type: cell-based; conditions: Homo sapiens; for EC50: 3D HUVEC model, VEGF-A 25 ng/ml, 24 hours, read-out: EC50 of inhibition of vessel sprouting
Experimental: The effect of PFKFB3 inhibitors on VEGF-A induced sprouting of HUVECs in a spheroid-based cellular angiogenesis assay. Sunitinib was used as a control. The experiments were pursued in modification of the originally published protocol (Korff and Augustin: J Cell Sci 112: 3249-58, 1999). In brief, spheroids were prepared as described (Korff and Augustin: J Cell Biol 143:1341-52, 1998) by pipetting 500 HUVEC in a hanging drop on plastic dishes to allow overnight spheroid aggregation. 50 HUVEC spheroids were then seeded in 0.9 ml of a collagen gel and pipetted into individual wells of a 24 well plate to allow polymerization. The test compounds in combination with the growth factor VEGF-A at 25 ng/ml final assay concentration) were added after 30 min by pipetting 100 μl of a 10-fold concentrated working solution on top of the polymerized gel. Plates were incubated at 37° C. for 24 hours and fixed by adding 4% Roti-Histofix (Roth, Karlsruhe, Germany). Sprouting intensity of HUVEC spheroids treated with the growth factor and the inhibitors were quantitated by an image analysis system determining the cumulative sprout length per spheroid (CSL) using an inverted microscope and the digital imaging software NIS-Elements BR 3.0 (Nikon). The mean of the cumulative sprout length of 10 randomly selected spheroids was analyzed as an individual data point.

4T1-M3-Luc breast tumor = assay: Orthotopic 4T1-M3-Luc syngeneic breast tumor model; type: in vivo, female BALB/c mice
Experimental: as §1, with “antitumor and anti-metastatic” for “antitumor”, “4T1-M3-Luc” for “RENCA”, “breast” for “renal”
Level of metastasis was evaluated in lymph nodes, lung, spine and ileum by ex vivo luciferase bioluminescence measurements (FIG. 10D).

HUVECs [4] = assay: Cell viability of HUVECs in normoxia and hypoxia; type: cell-based; conditions: both normoxia and hypoxia conditions; FIG. 1
angiogenesis = conditions: reported in the literature; cited from earlier work
activated T-cells = conditions: reported in the literature; cited from earlier work
[5] = target: Recombinant full length human PFKFB4 (Homo sapiens, UniProt Q16877); assay: PFKFB4 kinase activity assay (ADP production, ADP-Glo)
Chain of Recombinant full length human PFKFB4 (Q16877 whole entry): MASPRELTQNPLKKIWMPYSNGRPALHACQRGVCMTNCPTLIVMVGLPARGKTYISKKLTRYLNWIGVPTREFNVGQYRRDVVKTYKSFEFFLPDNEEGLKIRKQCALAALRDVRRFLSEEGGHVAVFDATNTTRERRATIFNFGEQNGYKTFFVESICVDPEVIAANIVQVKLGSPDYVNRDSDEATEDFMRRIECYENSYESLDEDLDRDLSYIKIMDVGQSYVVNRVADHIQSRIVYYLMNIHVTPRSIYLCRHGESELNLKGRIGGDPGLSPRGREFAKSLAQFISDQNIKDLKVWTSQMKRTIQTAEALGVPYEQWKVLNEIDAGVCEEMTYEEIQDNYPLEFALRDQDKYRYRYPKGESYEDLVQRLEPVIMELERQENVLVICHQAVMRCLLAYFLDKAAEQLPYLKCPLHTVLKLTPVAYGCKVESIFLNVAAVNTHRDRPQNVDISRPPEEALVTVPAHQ

[6] = target: Recombinant full length human PFKFB3 (Homo sapiens, UniProt Q16875); assay: PFKFB3 kinase activity assay (ADP production, ADP-Glo)
Chain of Recombinant full length human PFKFB3 (Q16875 whole entry): as the sequence (Q16875 whole entry, species assumed) above

MDA-MB-468 = assay: Combination with anticancer agents, MDA-MB-468; type: cell-based; conditions: Homo sapiens, anticancer agent alone
Experimental: (§2) All cells can be incubated in the plates overnight at 37° C., 5% 002 incubator with different medium.

[7] = cited from earlier work
T-47D = assay: Combination with anticancer agents, T-47D; type: cell-based; conditions: Homo sapiens, T47D, anticancer agent alone
Experimental: as §2

[8] = 30 mg/kg twice daily, i.p., day 18

SMILES: CC(CN(C)C)OC(=O)c1ccc(-c2ccc(F)c(F)c2)cc1N1Cc2ccc(-c3cn[nH]n3)cc2C1=O (centres unmarked)
Protection factors (neurons): 2.56

SMILES: O=C(OCC(O)CO)c1ccc(-c2ccc(F)c(F)c2)cc1N1Cc2ccc(-c3cn[nH]n3)cc2C1=O (centres unmarked)
Protection factors (neurons): 1.35

SMILES: O=C1NCC(COC(=O)c2ccc(-c3ccc(F)c(F)c3)cc2N2Cc3ccc(-c4cn[nH]n4)cc3C2=O)O1 (centres unmarked)
Protection factors (neurons): 1.05

SMILES: O=CC[C@@H](O)[C@H](O)[C@H](O)CO [2-deoxy-D-glucose]
adverse effect in clinical trial [1]: hyperglycemia in all treated patients

SMILES: O=C(/C=C/c1ccc2ccc(C(F)(F)F)cc2n1)c1ccncc1 [ACT-PFK-158, (E)-1-(pyridin-4-yl)-3-(7-(trifluoromethyl)quinolin-2-yl)prop-2-en-1-one]
PFKFB3 inhibition (PFKFB3): inhibit PFKFB3 | glucose uptake [2]: reduce glucose uptake | intracellular concentration of Fru-2,6-BP [2]: reduce intracellular concentration of Fru-2,6-BP | growth of established tumors in vivo (established tumors): reduce growth of established tumors in vivo

SMILES: O=C(C=Cc1cccnc1)c1ccncc1 [Compound 3PO, 3-(3-pyridinyl)-1-(4-pyridinyl)-2-propen-1-one]
PFKFB3 inhibition (PFKFB3): inhibit PFKFB3 | angiogenesis (angiogenesis): inhibit angiogenesis | glucose uptake [2]: reduce glucose uptake | intracellular concentration of Fru-2,6-BP [2]: reduce intracellular concentration of Fru-2,6-BP | proliferation of activated T-cells (activated T-cells): inhibit proliferation of activated T-cells | growth of established tumors in vivo (established tumors): reduce growth of established tumors in vivo

SMILES: COc1cccc2c1C(=O)c1c(O)c3c(c(O)c1C2=O)C[C@@](O)(C(=O)CO)C[C@@H]3O[C@H]1C[C@H](N)[C@H](O)[C@H](C)O1 [Doxorubicin, Doxorubicin Hydrochloride]
IC50 (MDA-MB-468): 0.07 µM

SMILES: O=C(O)c1nn(Cc2ccc(Cl)cc2Cl)c2ccccc12 [Lonidamine]
toxicities in preclinical trials [7]: significant pancreatic and hepatic toxicities

SMILES: O=C(c1cc(Cc2n[nH]c(=O)c3ccccc23)ccc1F)N1CCN(C(=O)C2CC2)CC1 [Olaparib]
IC50 (T-47D): 38.6 µM

SMILES: CC(=O)O[C@H]1C(=O)[C@@]2(C)[C@H]([C@H](OC(=O)c3ccccc3)[C@]3(O)C[C@H](OC(=O)[C@H](O)[C@@H](NC(=O)c4ccccc4)c4ccccc4)C(C)=C1C3(C)C)[C@]1(OC(C)=O)CO[C@@H]1C[C@@H]2O [Paclitaxel]
IC50 (MDA-MB-468): 0.01 µM

SMILES: CCN(CC)CCNC(=O)c1c(C)[nH]c(/C=C2\C(=O)Nc3ccc(F)cc32)c1C [Sunitinib, reference compound]
Emax (HUVEC spheroids; HUVEC, positive control, read-out: maximal effect (inhibition of vessel sprouting)): 100% | EC50 (HUVEC spheroids): 0.1 µM

SMILES: CCOC(=O)c1ccc(-c2ccc(F)c(F)c2)cc1N1Cc2ccc(-c3cnn[nH]3)cc2C1=O [compound 166, ethyl 3′,4′-difluoro-3-[1-oxo-6-(1H-1,2,3-triazol-5-yl)-2,3-dihydro-1H-isoindol-2-yl][1,1′-biphenyl]-4-carboxylate]
IC50 [5]: < 20 µM | IC50 [6]: < 20 µM

More lines, main results first:

reduction of body weight vs control group (4T1-M3-Luc breast tumor; 30 mg/kg twice daily, i.p.): not significant
SMILES: O=C(O)c1cc(C(=O)O)c(C(=O)Nc2cc(-c3ccc(Cl)cc3Cl)ccc2C(=O)O)cc1O [Compound 1, 4-({4-carboxy-2′,4′-dichloro-[1,1′-biphenyl]-3-yl}carbamoyl)-6-hydroxybenzene-1,3-dicarboxylic acid]
bioluminescence (RENCA renal tumor; day 16): increase of bioluminescence | tumor volume after necropsy (RENCA renal tumor; day 17): significantly decreased | tumor weight after necropsy (RENCA renal tumor; day 17): no statistically significant difference | cell viability of HUVECs (HUVECs [3]): did not reduce cell viability | Emax at 100 µM (HUVEC spheroids; HUVEC, at 100 μM, read-out: maximal effect: decrease of vessel sprouting down to): ~25% | Emax (HUVEC spheroids; HUVEC, at the highest doses, read-out: maximal effect of vessel reduction, % from the initial level): 25 to 50% | EC50 (HUVEC spheroids): 20 to 40 µM | T/C ratio (tumor volume) (4T1-M3-Luc breast tumor; 30 mg/kg twice daily, i.p., day 4): 47% | T/C ratio (tumor volume) (4T1-M3-Luc breast tumor; 30 mg/kg twice daily, i.p., day 7): 65% | tumor volume after necropsy (4T1-M3-Luc breast tumor; [8]): significantly lower | tumor weight after necropsy (4T1-M3-Luc breast tumor; [8]): not tumor weight | level of metastasis (ex vivo luciferase bioluminescence) (4T1-M3-Luc breast tumor; lymph nodes, lung, spine and ileum): No statistically significant difference | cell viability of HUVECs (HUVECs [4]): did not reduce cell viability

IC50 [5]: < 0.5 µM | IC50 [6]: < 0.5 µM
SMILES: O=C(O)c1ccc(-c2ccc(F)c(F)c2)cc1N1C(=O)c2ccc(-c3c[nH]nn3)cc2C1=O [Compound 82, 3′,4′-Difluoro-3-[1,3-dioxo-5-(1H-[1,2,3]triazol-4-yl)-1,3-dihydroisoindol-2-yl]biphenyl-4-carboxylic Acid]

IC50 [5]: < 0.5 µM | IC50 [6]: < 0.5 µM
SMILES: O=C(O)c1ccc2c(c1)C(=O)N(c1ccc(-c3ccccc3)cc1C(=O)O)C2=O [Compound 134, 2-(3-Carboxybiphenyl-4-yl)-1,3-dioxo-2,3-dihydro-1H-isoindole-5-carboxylic acid]

IC50 [5]: < 0.5 µM | IC50 [6]: < 0.5 µM
SMILES: O=C(O)c1ccc2c(c1)C(=O)N(c1cc(-c3ccc(F)c(F)c3)ccc1C(=O)O)C2=O [Compound 138, 2-(4-Carboxy-3′,4′-difluoro[1,1′-biphenyl]-3-yl)-1,3-dioxo-2,3-dihydro-1H-isoindole-5-carboxylic acid]

IC50 [5]: < 0.5 µM | IC50 [6]: < 0.5 µM
SMILES: O=C(O)c1ccc2c(c1)C(=O)N(c1cc(-c3ccc(Cl)c(F)c3)ccc1C(=O)O)C2=O [Compound 143, 2-(4-Carboxy-4′-chloro-3′-fluoro[1,1′-biphenyl]-3-yl)-1,3-dioxo-2,3-dihydro-1H-isoindole-5-carboxylic acid]

IC50 [5]: < 0.5 µM | IC50 [6]: < 0.5 µM
SMILES: O=C(O)c1cc2c(cc1O)C(=O)N(c1cc(-c3ccc(F)c(F)c3)ccc1C(=O)O)C2=O [Compound 144a, 2-(4-Carboxy-3′,4′-difluoro[1,1′-biphenyl]-3-yl)-6-hydroxy-1,3-dioxo-2,3-dihydro-1H-isoindole-5-carboxylic acid]

IC50 [5]: < 0.5 µM | IC50 [6]: < 0.5 µM
SMILES: O=C(O)c1ccc(-c2ccc(F)c(F)c2)cc1N1C(=O)c2cc(Cl)c(-c3cnn[nH]3)cc2C1=O [Compound 144b, 3-[5-Chloro-1,3-dioxo-6-(1H-1,2,3-triazol-5-yl)-2,3-dihydro-1H-isoindol-2-yl]-3′,4′-difluoro[1,1′-biphenyl]-4-carboxylic Acid]

IC50 [5]: < 0.5 µM | IC50 [6]: < 0.5 µM
SMILES: O=C(O)c1ccc(-c2ccccc2)cc1N1C(=O)c2cc(Cl)c(-c3cnn[nH]3)cc2C1=O [Compound 144c, 3-[5-Chloro-1,3-dioxo-6-(1H-1,2,3-triazol-5-yl)-2,3-dihydro-1H-isoindol-2-yl][1,1′-biphenyl]-4-carboxylic Acid]
